According to US9216181B2 (Southwest Research Institute, priority 2011, dated 2015):
Several values for one entry are separate records, joined by “and”; a condition that tells them apart may be missing. Equal entries are not always repeated. Structures can show the parent of a compound that is named as a salt. Where two headings read alike, the source gives them in different places.

What was measured:
[1] = tested on: BMP-2; assay: BMP-2 fold change of JHU library compounds, confirmed by qPCR; assay type: cell-based, human; conditions: JHU library compounds; non-treated = 1.00
Source text: To further verify the technique, a 2T3 mouse pre-osteoblast cell line derived from calvaria courtesy of Dr. Steve Harris, UTHSCSA, was utilized to visually screen the compounds of the BIOMOL library and JHU libraries, purchased from John Hopkins University including 2387 compounds (solution in wells). Specifically, Murine 2T3 were thawed from one frozen cryovial and re-seeded into two T-75 tissue culture flasks grown in Alpha MEM with 10% FBS, Glutamine, and Pen/Strip antibiotics. Cells were incubated in a humidified 37° C. under 5% CO2 for 48 hours or when cells reached 80% confluence. After reaching confluency, the 2T3 were trypsinized and resuspended in pre-warm growth media to a cell density of 5×10^4 cells/mL. Approximately 100 uL of cell suspension was seeded to a 96 well plate to give a final 5,000 cells per well. Plate was incubated overnight at 37° C. and spent media was aspirated and replace with 100 uL of growth media with 5-10 uM of presumptive drug compounds. A set of controls were untreated and treated with 10 uM of Lovastatin to be used as a visual reference morphological screening.
Human mesenchymal stem cells (LONZA, Catalog PT2501) were maintained in Mesenchymal stem cells basal media (MSCBM CAT#PT-3238). Early passage cells were plated in triplicate at 2×10^4 cells/cm^2 using six well tissue culture plates and grown in humidified 5% CO2 at 37° C. for 24 hours. Spent media was replaced by assay media of drugs to be tested in same media as above at 10 μM final concentration. Untreated cells were used as the control group. […] RNA concentration and integrity was assessed by absorbance 260/280 and electrophoresis in 1% Agarose with formaldehyde loading dye. For TaqMan gene expression, cDNA was synthesized from 2 μg of total RNA using the High Capacity cDNA Reverse Transcription Kit (Applied Biosystems, Cat. 4368814). The resulting cDNA were diluted 1:100 for TaqMan and amplified by real-time quantitative PCR. […] A cocktail of universal master mix (Applied Biosystems, 4369016) were prepared individually for both set of primers which contained Taq Polymerase, dNTPs, and buffer. Template cDNA's were added separately to respective individual wells in triplicate samples. The PCR were performed on StepOne Plus Real Time System instrument (Applied Biosystems). The amplification program consisted of 1 cycle of 95° C. with 10 minute hold (hot start) followed by 50 cycles of 95° C. with 15 second annealing hold and 1 minute 60° C. specified acquisition hold. […] Change in gene expression was determined by the expression ΔΔCt relative method.
Included in the tables is the target or common medical use for each compounds.

[2] = tested on: BMP2; assay: Quantitative PCR (TaqMan, ΔΔCt) of BMP2 in human mesenchymal stem cells; assay type: cell-based; conditions: BMP2 mRNA, hMSC, 10 μM, vs untreated, 18S reference; for fold induction at 10 µM: Homo sapiens, Mesenchymal stem cells, read-out: q-PCR Fold increase
Protocol: Human mesenchymal stem cells (LONZA, Catalog PT2501) were maintained in Mesenchymal stem cells basal media (MSCBM CAT#PT-3238). Early passage cells were plated in triplicate at 2×10^4 cells/cm^2 using six well tissue culture plates and grown in humidified 5% CO2 at 37° C. for 24 hours. Spent media was replaced by assay media of drugs to be tested in same media as above at 10 μM final concentration. Untreated cells were used as the control group. Total RNA were prepared using either TRI Reagent (Ambion, Cat. 9738), for subsequent TaqMan gene expression qPCR of BMP2. RNA concentration and integrity was assessed by absorbance 260/280 and electrophoresis in 1% Agarose with formaldehyde loading dye. For TaqMan gene expression, cDNA was synthesized from 2 μg of total RNA using the High Capacity cDNA Reverse Transcription Kit (Applied Biosystems, Cat. 4368814). The resulting cDNA were diluted 1:100 for TaqMan and amplified by real-time quantitative PCR. Gene-specific fluorescent labeled TaqMan primers for FAM-BMP2 (Applied Biosystems, Hs00154192.m1) and TaqMan reference VIC-18S ribosomal RNA (Applied Biosystems, 4310893E) were used to target gene of interest. A cocktail of universal master mix (Applied Biosystems, 4369016) were prepared individually for both set of primers which contained Taq Polymerase, dNTPs, and buffer. Template cDNA's were added separately to respective individual wells in triplicate samples. The PCR were performed on StepOne Plus Real Time System instrument (Applied Biosystems). The amplification program consisted of 1 cycle of 95° C. with 10 minute hold (hot start) followed by 50 cycles of 95° C. with 15 second annealing hold and 1 minute 60° C. specified acquisition hold. The Ct value of endogenous reference gene (i.e. 18 s) was used to control for input RNA and then used to normalize target gene (i.e. BMP2) tested from the same cDNA sample to calculate the Δ Ct, and then calibrated to an internal reference sample. Change in gene expression was determined by the expression ΔΔCt relative method.
18 compounds were confirmed positive by the more stringent qPCR techniques. […] Included in the tables is the target or common medical use for each compounds.

[3] = tested on: BMP-2; assay: Real time PCR of BMP-2 gene expression in human MSC (Cells-to-Ct); assay type: cell-based; conditions: BMP-2 mRNA, hMSC, 5-10 μM, 24 hours, vs untreated
Protocol: Early passage human mesenchymal stem cells (MSC) were thawed from one frozen cryo-vial and seeded into two T-75 tissue culture flasks and incubated at 37° C. for 48 hours in Alpha MEM with 10% FBS. After three days and one re-feeding, the cells were trypsinized and re-suspended in pre-warmed media at 5×10^4 cells/mL to provide 5,000 cells per well in a 96 well plate and incubated overnight at 37° C. in 5% CO2.
Each well was washed in cold PBS, lysed at room temperature for five minutes, and stop reagent added to each well to stop the lysis reaction. The final lysate was kept cold at 4° C. and used immediately as the RNA template for the reverse transcription cDNA synthesis following the TAQMAN GENE EXPRESSION CELLS TO CT KIT instructions.
The cDNA synthesis was prepared on a separate sterile 96-well PCR plate and performed on the Step One Plus Real Time PCR System instrument (Applied Biosystems) with the programming set at 37° C. for 60 minutes and an inactivation hold of 95° C. for five minutes. The final cDNA reaction was kept cold and used as the template for the TAQMAN GENE Real-Time PCR step following the recommended instructions for TAQMAN GENE EXPRESSION CELLS TO CT KIT assay. […] Template cDNA's were added separately to respective individual wells in replicate samples.
The PCR was performed on the STEPONEPLUS Real-Time System instrument (Applied Biosystems). The amplification program consisted of 1 cycle of 95° C. with 10 minute hold (hot start) and followed by 50 cycles of 95° C. with 15-second annealing hold and 1-minute 60° C. specified acquisition hold.

[4] = positive control compounds (Table 1)

CC(=O)OCC(=O)[C@@]1(O)CC[C@H]2[C@@H]3C[C@H](C)C4=CC(=O)C=C[C@]4(C)[C@H]3[C@@H](O)C[C@@]21C [6alpha-METHYLPREDNISOLONE ACETATE]
Fold change (BMP-2) [1]: 35.00 fold

CC[C@@]1(O)C(=O)OCc2c1cc1n(c2=O)Cc2cc3cc(O)ccc3nc2-1 [10-hydroxy-camptothecin]
q-PCR Fold increase ([2]; BIOMOL library (Table 2)): 3.9 fold
RT PCR Fold increase ([3]; BIOMOL library (Table 2)): 30.0 fold

Nc1c2ccccc2nc2ccccc12 [Aminacrine (9-Aminoacridine)]
Fold change (BMP-2) [1]: 5762.00 fold

COc1cc(NS(C)(=O)=O)ccc1Nc1c2ccccc2nc2ccccc12 [Amsacrine]
Fold change (BMP-2) [1]: 85.00 fold

COc1ccc(C[C@H]2NC[C@H](O)[C@H]2OC(C)=O)cc1 [Anisomycin]
Fold change (BMP-2) [1]: 670.00 fold and 387.00 fold

CN1CCc2cccc3c2[C@H]1Cc1ccc(O)c(O)c1-3 [Apomorphine r (−)]
fold induction at 10 µM ([2]; BIOMOL library (Table 2)): 7.3
RT PCR Fold increase ([3]; BIOMOL library (Table 2)): 4.6 fold

CC(=O)OC[C@H]1O[C@@H]([S-])[C@H](OC(C)=O)[C@@H](OC(C)=O)[C@@H]1OC(C)=O.CCP(CC)CC.[Au+] [Auranofin]
q-PCR Fold increase ([2]; BIOMOL library (Table 2)): 17.6 fold
RT PCR Fold increase ([3]; BIOMOL library (Table 2)): 309.8 fold

CC(C)C[C@H](NC(=O)[C@H](Cc1ccccc1)NC(=O)c1cnccn1)B(O)O [Bortezomib]
fold induction at 10 µM [2, 4]: 2.4
RT PCR Fold increase [3, 4]: 15.4 fold

CC(=O)[O-].CC(=O)[O-].[Cd+2] [Cadmium Acetate]
Fold change (BMP-2) [1]: 8.00 fold

C=C1CC[C@H](O)C/C1=C/C=C1\CCC[C@]2(C)[C@@H]([C@H](C)CCCC(C)(C)O)CC[C@@H]12 [Calcifediol]
fold induction at 10 µM ([2]; BIOMOL library (Table 2)): 3.4
RT PCR Fold increase ([3]; BIOMOL library (Table 2)): 6.0 fold

CC[C@@]1(O)C(=O)OCc2c1cc1n(c2=O)Cc2cc3ccccc3nc2-1 [Camptothecin]
fold induction at 10 µM ([2]; BIOMOL library (Table 2)): 4
RT PCR Fold increase ([3]; BIOMOL library (Table 2)): 29.0 fold

COCc1c(C(C)C)nc(C(C)C)c(/C=C/[C@@H](O)C[C@@H](O)CC(=O)O)c1-c1ccc(F)cc1 [Cerivastatin]
fold induction at 10 µM [2, 4]: 11.9
RT PCR Fold increase [3, 4]: 5.3 fold

CC(C)(C)CC(C)(C)c1ccc(O)c(Cc2ccc(Cl)cc2Cl)c1 [Clofoctol]
Fold change (BMP-2) [1]: 11.00 fold

C[C@@H]1C[C@@H]([C@H](O)CC2CC(=O)NC(=O)C2)C(=O)[C@@H](C)C1 [Cycloheximide]
Fold change (BMP-2) [1]: 34.00 fold

Oc1ccc(CCN2CCC(Nc3nc4ccccc4n3Cc3ccc(F)cc3)CC2)cc1 [Desmethyl astemizole]
Fold change (BMP-2) [1]: 75.00 fold

COc1ccc(-c2cc(=O)c3c(O)cc(O[C@@H]4O[C@H](CO[C@@H]5O[C@@H](C)[C@H](O)[C@@H](O)[C@H]5O)[C@@H](O)[C@H](O)[C@H]4O)cc3o2)cc1O [Diosmin]
Fold change (BMP-2) [1]: 9.00 fold

CC[C@H]1CN2CCc3cc(OC)c(OC)cc3[C@@H]2C[C@@H]1C[C@H]1NCCc2cc(OC)c(OC)cc21 [Emetine]
Fold change (BMP-2) [1]: 220.00 fold

CC[C@@H](C(=O)[C@@H](C)[C@@H](O)[C@H](C)CCc1ccc(C)c(O)c1C(=O)[O-])[C@H]1O[C@](CC)([C@H]2CC[C@](O)(CC)[C@H](C)O2)C[C@@H]1C.[Na+] [Laslocid Sodium]
Fold change (BMP-2) [1]: 4.00 fold

O=[N+]([O-])c1ccc(O)c2ncccc12 [Nitroxoline (8-hydroxy 5-nitroquinoline)]
Fold change (BMP-2) [1]: 18.00 fold

O=P([O-])([O-])OC1C(OP(=O)([O-])[O-])C(OP(=O)([O-])[O-])C(OP(=O)([O-])[O-])C(OP(=O)([O-])[O-])C1OP(=O)([O-])[O-].[Na+].[Na+].[Na+].[Na+].[Na+].[Na+].[Na+].[Na+].[Na+].[Na+].[Na+].[Na+] (centres unmarked) [Phytic acid, dodecasodium salt hydrate]
Fold change (BMP-2) [1]: 15.00 fold

Cc1cc(/C=C/c2ccc3cc(N(C)C)ccc3[n+]2C)c(C)n1-c1ccccc1 [Pyrvinium pamoate]
Fold change (BMP-2) [1]: 398.00 fold

C=C(C)[C@H]1Cc2c(ccc3c2O[C@@H]2COc4cc(OC)c(OC)cc4[C@@H]2C3=O)O1 [ROTENONE]
Fold change (BMP-2) [1]: 61.00 fold

C[CH2][Hg][S]c1ccccc1C(=O)[O-].[Na+] [THIMEROSAL]
Fold change (BMP-2) [1]: 23.00 fold

CN(C)C(=S)SSC(=S)N(C)C [THIRAM]
Fold change (BMP-2) [1]: 36.00 fold

C=C(NC(=O)C(=C)NC(=O)c1csc(C2=N[C@@H]3c4csc(n4)[C@H]4NC(=O)c5csc(n5)[C@H]([C@](C)(O)[C@@H](C)O)NC(=O)[C@H]5CSC(=N5)/C(=C/C)NC(=O)[C@H]([C@@H](C)O)NC(=O)c5csc(n5)[C@]3(CC2)NC(=O)[C@H](C)NC(=O)C(=C)NC(=O)[C@H](C)NC(=O)[C@H]([C@@H](C)CC)N[C@@H]2C=Cc3c([C@H](C)O)cc(nc3[C@H]2O)C(=O)O[C@@H]4C)n1)C(N)=O [Thiostrepton]
Fold change (BMP-2) [1]: 5.00 fold

CC[C@@]1(O)C(=O)OCc2c1cc1n(c2=O)Cc2cc3c(CN(C)C)c(O)ccc3nc2-1 [Topotecan]
Fold change (BMP-2) [1]: 365.00 fold

CCC1=C[C@@H]2CN(C1)Cc1c([nH]c3ccccc13)[C@@](C(=O)OC)(c1cc3c(cc1OC)N(C)[C@H]1[C@@](O)(C(=O)OC)[C@H](OC(C)=O)[C@]4(CC)C=CCN5CC[C@]31[C@@H]54)C2 [Vinorelbine tartrate]
Fold change (BMP-2) [1]: 803.00 fold

Acriflavine hydrochloride
Fold change (BMP-2) [1]: 1491.00 fold

Brilliant Blue
Fold change (BMP-2) [1]: 111.00 fold

Proflavine hemisulfate salt hydrate
Fold change (BMP-2) [1]: 177.00 fold

Verteporfin
Fold change (BMP-2) [1]: 6.00 fold
